Assay results reported in the supplement of paper PMC10307832.

Columns and labels:
Test in all cases: relative viability (nuclei count vs DMSO), 5 days (fraction); higher = more cells survive
GSK-J4 + Pemetrexed = compound: CCOC(=O)CCNc1cc(N2CCc3ccccc3CC2)nc(-c2ccccn2)n1 [GSK-J4] + Nc1nc2[nH]cc(CCc3ccc(C(=O)N[C@@H](CCC(=O)O)C(=O)O)cc3)c2c(=O)[nH]1 [Pemetrexed] (partner 0.2 µM)
Summary of the method: (§1)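 Five library-drug doses in √10 steps were combined with a fixed anchor-drug dose, or a single drug was given alone, by pin tool to lung cancer cell lines in 1536-well plates the day after seeding. Nuclei were stained and counted after 5 days. Relative viability is the nuclei count in treated wells over that in vehicle wells, taken as the median of duplicate plates.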

AZ3146 + Vorinostat = compound: CN1CCC(CC1)OC2=CC(=C(C=C2)NC3=NC=C4C(=N3)N(C(=O)N4C)C5CCCC5)OC [AZ3146] + O=C(CCCCCCC(=O)Nc1ccccc1)NO [Vorinostat] (partner 1 µM)
Summary of the method: as §1

AZ3146 + Pictilisib = compound: CN1CCC(CC1)OC2=CC(=C(C=C2)NC3=NC=C4C(=N3)N(C(=O)N4C)C5CCCC5)OC [AZ3146] + CS(=O)(=O)N1CCN(Cc2cc3nc(-c4cccc5[nH]ncc45)nc(N4CCOCC4)c3s2)CC1 [Pictilisib] (partner 1 µM)
Summary of the method: as §1

GSK-J4 + Olaparib = compound: CCOC(=O)CCNc1cc(N2CCc3ccccc3CC2)nc(-c2ccccn2)n1 [GSK-J4] + O=C(c1cc(Cc2n[nH]c(=O)c3ccccc23)ccc1F)N1CCN(C(=O)C2CC2)CC1 [Olaparib] (partner 8 µM)
Summary of the method: as §1

PC-3 [JPC-3]
relative viability (GSK-J4 + Pemetrexed; first compound 0.5 µM): 1.14
relative viability (GSK-J4 + Pemetrexed; first compound 1.581 µM): 0.848
relative viability (GSK-J4 + Pemetrexed; first compound 5 µM): 1.03
relative viability (GSK-J4 + Pemetrexed; first compound 15.81 µM): 0.938
relative viability (GSK-J4 + Pemetrexed; first compound 50 µM): 0.944
relative viability (AZ3146 + Vorinostat; first compound 0.08 µM): 0.554
relative viability (AZ3146 + Vorinostat; first compound 0.8 µM): 0.803
relative viability (AZ3146 + Vorinostat; first compound 2.53 µM): 0.66
relative viability (AZ3146 + Vorinostat; first compound 8 µM): 0.713
relative viability (AZ3146 + Pictilisib; first compound 0.08 µM): 0.669
relative viability (AZ3146 + Pictilisib; first compound 0.253 µM): 0.651
relative viability (AZ3146 + Pictilisib; first compound 0.8 µM): 0.766
relative viability (AZ3146 + Pictilisib; first compound 2.53 µM): 0.8
relative viability (AZ3146 + Pictilisib; first compound 8 µM): 0.681
relative viability (GSK-J4 + Olaparib; first compound 0.5 µM): 1.06
relative viability (GSK-J4 + Olaparib; first compound 1.581 µM): 1.06
relative viability (GSK-J4 + Olaparib; first compound 5 µM): 0.996
relative viability (GSK-J4 + Olaparib; first compound 15.81 µM): 1.07
relative viability (GSK-J4 + Olaparib; first compound 50 µM): 0.801

PC-14
relative viability (GSK-J4 + Pemetrexed; first compound 0.5 µM): 0.128
relative viability (GSK-J4 + Pemetrexed; first compound 1.581 µM): 0.143
relative viability (GSK-J4 + Pemetrexed; first compound 5 µM): 0.13
relative viability (GSK-J4 + Pemetrexed; first compound 15.81 µM): 0.143
relative viability (GSK-J4 + Pemetrexed; first compound 50 µM): 0.17
relative viability (AZ3146 + Vorinostat; first compound 0.08 µM): 0.538
relative viability (AZ3146 + Vorinostat; first compound 0.253 µM): 0.745
relative viability (AZ3146 + Vorinostat; first compound 0.8 µM): 0.546
relative viability (AZ3146 + Vorinostat; first compound 2.53 µM): 0.359
relative viability (AZ3146 + Vorinostat; first compound 8 µM): 0.0815
relative viability (AZ3146 + Pictilisib; first compound 0.08 µM): 0.68
relative viability (AZ3146 + Pictilisib; first compound 0.253 µM): 0.763
relative viability (AZ3146 + Pictilisib; first compound 0.8 µM): 0.725
relative viability (AZ3146 + Pictilisib; first compound 2.53 µM): 0.71
relative viability (AZ3146 + Pictilisib; first compound 8 µM): 0.518
relative viability (GSK-J4 + Olaparib; first compound 0.5 µM): 0.304
relative viability (GSK-J4 + Olaparib; first compound 1.581 µM): 0.271
relative viability (GSK-J4 + Olaparib; first compound 5 µM): 0.195
relative viability (GSK-J4 + Olaparib; first compound 15.81 µM): 0.228
relative viability (GSK-J4 + Olaparib; first compound 50 µM): 0.227

RERF-LC-KJ
relative viability (GSK-J4 + Pemetrexed; first compound 0.5 µM): 0.472
relative viability (GSK-J4 + Pemetrexed; first compound 1.581 µM): 0.47
relative viability (GSK-J4 + Pemetrexed; first compound 5 µM): 0.448
relative viability (GSK-J4 + Pemetrexed; first compound 15.81 µM): 0.44
relative viability (GSK-J4 + Pemetrexed; first compound 50 µM): 0.442
relative viability (AZ3146 + Vorinostat; first compound 0.08 µM): 0.534
relative viability (AZ3146 + Vorinostat; first compound 0.253 µM): 0.657
relative viability (AZ3146 + Vorinostat; first compound 0.8 µM): 0.774
relative viability (AZ3146 + Vorinostat; first compound 2.53 µM): 0.756
relative viability (AZ3146 + Vorinostat; first compound 8 µM): 0.576
relative viability (AZ3146 + Pictilisib; first compound 0.08 µM): 0.513
relative viability (AZ3146 + Pictilisib; first compound 0.253 µM): 0.53
relative viability (AZ3146 + Pictilisib; first compound 0.8 µM): 0.549
relative viability (AZ3146 + Pictilisib; first compound 2.53 µM): 0.696
relative viability (AZ3146 + Pictilisib; first compound 8 µM): 0.516
relative viability (GSK-J4 + Olaparib; first compound 0.5 µM): 0.867
relative viability (GSK-J4 + Olaparib; first compound 1.581 µM): 0.928
relative viability (GSK-J4 + Olaparib; first compound 5 µM): 0.867
relative viability (GSK-J4 + Olaparib; first compound 15.81 µM): 0.814
relative viability (GSK-J4 + Olaparib; first compound 50 µM): 0.484

SK-LU-1
relative viability (GSK-J4 + Pemetrexed; first compound 0.5 µM): 0.931
relative viability (GSK-J4 + Pemetrexed; first compound 1.581 µM): 0.877
relative viability (GSK-J4 + Pemetrexed; first compound 5 µM): 0.85
relative viability (GSK-J4 + Pemetrexed; first compound 15.81 µM): 0.876
relative viability (GSK-J4 + Pemetrexed; first compound 50 µM): 0.717
relative viability (AZ3146 + Vorinostat; first compound 0.08 µM): 0.746
relative viability (AZ3146 + Vorinostat; first compound 0.253 µM): 0.854
relative viability (AZ3146 + Vorinostat; first compound 0.8 µM): 0.752
relative viability (AZ3146 + Vorinostat; first compound 2.53 µM): 0.792
relative viability (AZ3146 + Vorinostat; first compound 8 µM): 0.504
relative viability (AZ3146 + Pictilisib; first compound 0.08 µM): 0.571
relative viability (AZ3146 + Pictilisib; first compound 0.253 µM): 0.507
relative viability (AZ3146 + Pictilisib; first compound 0.8 µM): 0.693
relative viability (AZ3146 + Pictilisib; first compound 2.53 µM): 0.651
relative viability (AZ3146 + Pictilisib; first compound 8 µM): 0.535
relative viability (GSK-J4 + Olaparib; first compound 0.5 µM): 0.433
relative viability (GSK-J4 + Olaparib; first compound 1.581 µM): 0.465
relative viability (GSK-J4 + Olaparib; first compound 5 µM): 0.429
relative viability (GSK-J4 + Olaparib; first compound 15.81 µM): 0.428
relative viability (GSK-J4 + Olaparib; first compound 50 µM): 0.309

SK-MES-1
relative viability (GSK-J4 + Pemetrexed; first compound 0.5 µM): 0.836
relative viability (GSK-J4 + Pemetrexed; first compound 1.581 µM): 0.878
relative viability (GSK-J4 + Pemetrexed; first compound 5 µM): 0.882
relative viability (GSK-J4 + Pemetrexed; first compound 15.81 µM): 0.808
relative viability (GSK-J4 + Pemetrexed; first compound 50 µM): 0.508
relative viability (AZ3146 + Vorinostat; first compound 0.08 µM): 1.04
relative viability (AZ3146 + Vorinostat; first compound 0.253 µM): 1.17
relative viability (AZ3146 + Vorinostat; first compound 0.8 µM): 1.14
relative viability (AZ3146 + Vorinostat; first compound 2.53 µM): 1.19
relative viability (AZ3146 + Vorinostat; first compound 8 µM): 0.701
relative viability (AZ3146 + Pictilisib; first compound 0.08 µM): 0.349
relative viability (AZ3146 + Pictilisib; first compound 0.253 µM): 0.376
relative viability (AZ3146 + Pictilisib; first compound 0.8 µM): 0.388
relative viability (AZ3146 + Pictilisib; first compound 2.53 µM): 0.371
relative viability (AZ3146 + Pictilisib; first compound 8 µM): 0.373
relative viability (GSK-J4 + Olaparib; first compound 0.5 µM): 0.675
relative viability (GSK-J4 + Olaparib; first compound 1.581 µM): 0.641
relative viability (GSK-J4 + Olaparib; first compound 5 µM): 0.727
relative viability (GSK-J4 + Olaparib; first compound 15.81 µM): 0.626
relative viability (GSK-J4 + Olaparib; first compound 50 µM): 0.22

SW 1573
relative viability (GSK-J4 + Pemetrexed; first compound 0.5 µM): 0.81
relative viability (GSK-J4 + Pemetrexed; first compound 1.581 µM): 0.804
relative viability (GSK-J4 + Pemetrexed; first compound 5 µM): 0.768
relative viability (GSK-J4 + Pemetrexed; first compound 15.81 µM): 0.756
relative viability (GSK-J4 + Pemetrexed; first compound 50 µM): 0.375
relative viability (AZ3146 + Vorinostat; first compound 0.08 µM): 0.636
relative viability (AZ3146 + Vorinostat; first compound 0.253 µM): 0.767
relative viability (AZ3146 + Vorinostat; first compound 0.8 µM): 0.643
relative viability (AZ3146 + Vorinostat; first compound 2.53 µM): 0.723
relative viability (AZ3146 + Vorinostat; first compound 8 µM): 0.307
relative viability (AZ3146 + Pictilisib; first compound 0.08 µM): 0.457
relative viability (AZ3146 + Pictilisib; first compound 0.253 µM): 0.539
relative viability (AZ3146 + Pictilisib; first compound 0.8 µM): 0.507
relative viability (AZ3146 + Pictilisib; first compound 2.53 µM): 0.633
relative viability (AZ3146 + Pictilisib; first compound 8 µM): 0.443
relative viability (GSK-J4 + Olaparib; first compound 0.5 µM): 0.471
relative viability (GSK-J4 + Olaparib; first compound 1.581 µM): 0.365
relative viability (GSK-J4 + Olaparib; first compound 5 µM): 0.486
relative viability (GSK-J4 + Olaparib; first compound 15.81 µM): 0.354
relative viability (GSK-J4 + Olaparib; first compound 50 µM): 0.153
